Measurements: BigSolDB 2.1

Oc1ccc(/C=C/c2cc(O)cc(O)c2)cc1
solubility (mole fraction)
Details	288.15 K	293.15 K	298.15 K	303.15 K	308.15 K	313.15 K
in transcutol	0.148	0.15	0.153	0.156	0.159	0.161
in water	1.29e-06	1.91e-06	2.78e-06	4e-06	5.74e-06	8.03e-06
